Tests used:
[1] = system: MeWo cells; assay: Western blot of protein levels; type: cell-based, human; parameters: concentration or dose not given beside the values; settings: vs respective control
Experimental: Approximately 2×10^5 cells from PCS-200-013 and SK-MEL-2 cell lines were plated in T25 flasks until they become 70% confluent. Confluent cells were semi-synchronized by contact inhibition and serum starvation for 48 hrs. Subsequently, cells were incubated with serum and atypical inhibitors. The cells were removed at specific times and were placed in ice to terminate the incubation. Cells were washed at least two times with ice cold DPBS. Cells were then scrapped, re-suspended and sonicated in 500 μL of homogenization buffer (50 mM HEPES—pH 7.5), 150 mM NaCl, 0.1% Triton X, 1 mM EDTA (ethylenediaminetetraacetic acid), 2 mM EGTA [glycol-bis (2-aminoethylether)-N, N, N′,N′-tetraacetic acid], 0.1 mM orthovanadate, 1 mM NaF, 2 mM PMSF (phenylmethylsulphonylfluoride), 1 mM DTT (dithiothreitol) and 0.15 U/mL aprotinin. Cell suspensions was then sonicated and centrifuged at 100,000 g for 30 minutes. The protein concentrations was determined using Bradford method. Subsequently, approximately 800 μg of proteins were immunoprecipitated with the antibody against desired protein. In some cases cell lysates were suspended with anti-HFS-1 antibody, rocking overnight at 4° C. Agarose beds were added after 24 hrs. Then the complex of cell lysate-anti HSF-1 antibody-agarose beads was rocked at 4° C. for 2 hrs. After washing the beads, approximately […] the sample loading buffer was added to dissolve all the protein on the beads. Proteins were then separated on sodium dodecyl sulfate polyacrylamide gel electrophoresis (SDS-PAGE) and transblotted followed by immunoblotting with anti-PKC-ζ or anti-PKC-ι or anti-HSF-1 antibody or phosphospecific antibodies. Immunoreactive bands were visualized with enhanced chemiluminescence.
Western blots (WB) were performed to investigate the effect of ACPD and DNDA on the expression of aPKCs on malignant melanoma. […] DNDA decreased the levels of PKC-ι by 52%, pPKC-ι by 33% in SK-MEL-2 cells and by 27% of PKC-ι and pPKC-ι by 20% in MeWo cells.
DNDA reduced the levels of PKC-ζ by 33%, pPKC-ζ by only 17% in SK-MEL-2 cells and by 60% of PKC-ζ and pPKC-ζ by 29% in MeWo cells. All values (percent) were calculated compared to their respective control in Western blot. B-actin was used as the internal control to ensure that equal amounts of proteins were loaded in each lane in SDS-PAGE.

[2] = system: PCS-200-013 normal melanocyte; assay: Inhibitor dose response curves (cell counts after 3 days); type: cell-based, human; settings: for effect on cell proliferation of normal melanocytes: dose curve
Experimental: (§1) Dose curves (inhibitor concentrations vs cell population after 3 days) for ICA-1, ACPD, DND and ζ-Stat were obtained for all 3 cell lines as follows. PCS-200-013, SK-MEL-2 and MeWo cells (4×10^4) were cultured in 25 cm^2 flasks and treated with either equal volume of sterile water (vehicle control). Cells were treated every 24 h during 3 day incubation period and cells were then lifted using Trypsin-EDTA solution (1.5 mL/flask) and neutralized with the equal volume of media. Subsequently, live cells were counted using the Scepter, an automated cell counter from Millipore (Billerica, Mass.). The cell growth inhibition for all inhibitors for the two malignant cell lines (SK-MEL-2 and MeWo) were quantified by counting the viable cells at 24 hour intervals. Cell counts obtained from Scepter was compared with the counts obtained from the Cellometer Vision from Nexcelom Bioscience (Lawrence, Mass.).
(§2) Dose curves for ACPD and DNDA were obtained to investigate the effect on cell proliferation of normal and malignant cell lines over a wide range of concentrations. […] ACPD decreased proliferation by 20% for 1.5 μM (p≤0.01), 48% for 2.5 μM (p≤0.01) and 51% for 3.5 μM (p≤0.001)(FIG. 5B). DNDA decreased by 17% for 500 nM (p≤0.01), 24% for 1.5 μM(p≤0.01), 52%) for 2.5 µM (p≤0.01) and 57 for 3.5 μM (p≤0.01)(FIG. 5C) in SK-MEL-2 cells. ACPD decreased proliferation by 28% for 500 nM (p≤0.01), 41% for 1.5 μM (p≤0.01), 54% for 2.5 µM (p≤0. 01) and 58% for 3.5 μM (p≤0.01) (FIG. 5D). DNDA decreased proliferation by 37% for 500 nM (p≤0.01), 41% for 1.5 μM (p≤0.01), 46% for 2.5 μM (p≤0.01) and 48% for 3.5 μM (p≤0.01) (FIG. 5E) in the MeWo cells.

[3] = system: SK-MEL-2 cells; assay: as above; type: cell-based, human
Experimental: as §1, §2

[4] = system: MeWo cells; assay: as above; type: cell-based, human
Experimental: as §1, §2

[5] = system: malignant melanoma cells (SK-MEL-2 and MeWo); assay: Viable cell counts, malignant cell lines taken together; type: cell-based; settings: Homo sapiens; for IC50: from dose curves of cell proliferation, read-out: half maximal inhibitory concentration (IC50)
Experimental: as §1, §2
To test the effects of ζ-Stat on malignant cells approximately 4×10^4 of cells were cultured in 25 cm2 flasks and treated with either equal volume of sterile water (control) or ζ-Stat (0.1-10 μM). Additional doses of sterile water or inhibitor were supplied every 24 h during 3 day incubation period. Subsequently, cells were lifted and counted. Cells were quantified by counting the viable cells at 24 hour intervals. […] N=3 experiments were performed for each cell line and mean±SD are plotted.

| Structure (SMILES) | reduction of PKC-ζ level [1] [%] | reduction of PKC-ι level [1] [%] | reduction of pPKC-ζ level [1] [%] | reduction of pPKC-ι level [1] [%] | effect on cell proliferation of normal melanocytes [2] | decrease of proliferation ([3]; 1.5 μM) [%] | decrease of proliferation ([3]; 2.5 μM) [%] | decrease of proliferation ([3]; 3.5 μM) [%] | decrease of proliferation ([4]; 500 nM) [%] | decrease of proliferation ([4]; 1.5 μM) [%] | decrease of proliferation ([4]; 2.5 μM) [%] | decrease of proliferation ([4]; 3.5 μM) [%] | IC50 [5] [nM] | inhibition of cell proliferation of normal melanocytes ([2]; 3.5 μM) [%] | decrease of proliferation ([3]; 500 nM) [%] | cytotoxicity at 2.5 µM ([5]; 2.5 μM, read-out: inhibition of cell viability according to cell counts) [%] | cytotoxicity at 5 µM ([5]; 5 μM, read-out: inhibition of cell viability according to cell counts) [%] | cytotoxicity at 10 µM ([5]; 10 μM, read-out: inhibition of cell viability according to cell counts) [%] |
| --- | --- | --- | --- | --- | --- | --- | --- | --- | --- | --- | --- | --- | --- | --- | --- | --- | --- | --- |
| CC(=O)C1=C(O)CCC1=O [ACPD, 2-acetyl-1,3-cyclopentanedione] | 42 | 46 | 23 | 26 | did not show a significant effect | 20 | 48 | 51 | 28 | 41 | 54 | 58 | ~2500 |  |  |  |  |  |
| Nc1c(S(=O)(=O)O)cc2cc(S(=O)(=O)O)ccc2c1N [DNDA, 3,4-diamino-2,7-naphthalenedisulfonic acid] | 60 | 27 | 29 | 20 | did not show a significant effect | 24 | 52 | 57 | 37 | 41 | 46 | 48 | ~2500 | 13.5 | 17 |  |  |  |
| O=S(=O)(O)c1cc(O)c2c(S(=O)(=O)O)cc(S(=O)(=O)O)cc2c1 [ζ-Stat, 8-hydroxy-1,3,6-naphthalenetrisulfonic acid] |  |  |  |  |  |  |  |  |  |  |  |  |  |  |  | 20 to 25 | ~50 | ~50 |

From US11065266B2, “Method of treating melanoma using an inhibitor of an atypical protein kinase C” (UNIVERSITY OF SOUTH FLORIDA, priority 2016, dated 2021)
